Results on twelve molecules are retold here after patent publication EP4782447A1, “HETEROAROMATIC SULFONAMIDE STRUCTURAL COMPOUND, PHARMACEUTICAL COMPOSITION THEREOF, AND USE THEREOF” (Shanghai Yingli Pharmaceutical Co., Ltd, priority 2023, dated 2025).

The term IC50 denotes the concentration that inhibits the measured activity by half. Lower therefore signals higher potency. Broadly, the AUC(0-inf) is total exposure, with the tail of the curve extrapolated. Low readings indicate less exposure, high ones more exposure. As usually defined, the AUC(0-t) is the area under the concentration-time curve up to a stated or last time point. Usually Cmax stands for the maximum level reached in the sampled fluid or tissue.

Data set [1] concerns the target T1, PARG (389-976) (Homo sapiens, UniProt Q86W56).
T1 construct: 5 µL of PARG (389-976) (manufactured by ChemPartner Co., Ltd.) was added into the 384-well plate; purchased ChemPartner Co., Ltd
As to the kind of experiment: PARG enzyme inhibition assay (TR-FRET). The format is biochemical. As to conditions: PARG 1.5 pM, Bio PARylated His-TEV-PARP1 substrate 12 nM. On the procedure: The in vitro PARG assay experiment was performed in a standard 384-well plate with a total reaction volume of 15 µL. In a buffer solution (50 mM Tris-HCl pH 7.5, 30 mM KCl, 1 mM EDTA, 3 mM DTT, 0.01% Tween-20, 0.025% BSA), 5 µL of PARG (389-976) (manufactured by ChemPartner Co., Ltd.) was added into the 384-well plate containing test compounds (with various concentrations) to obtain a final concentration of 1.5 pM, followed by incubation at room temperature for 30 minutes. Subsequently, 5 µL of Bio PARylated His-TEV-PARP1 (2-1014) substrate (manufactured by ChemPartner Co., Ltd.) was added into the above reaction mixture to obtain a final concentration of 12 nM, and the reaction was carried out at room temperature for 30 minutes after the addition was completed. Then, 5 µL of detection reagent was added. The detection reagent was prepared by buffer solution (50 mM Tris-HCl pH 7.5, 30 mM KCl, 1 mM EDTA, 3 mM DTT, 0.01% Tween-20, 0.025% BSA) consisting of 3 µM compound PDD00017273, 9 nM Mab anti-6HIS XL665 (Cisbio: 61HISXLA) and 0.9 nM streptavidin cryptate (Cisbio: 610SATLA). All three components were used at 3X working concentration, corresponding to final concentrations of 1 µM, 3 nM and 0.3 nM, respectively. After incubation at room temperature for 120 minutes in the dark place, the TR-FRET signals were measured at an excitation wavelength (Ex) of 340 nm, emission wavelengths (Em) of 665 nm and 615 nm. The ratio for each well was calculated as Em 665 / Em 615, and the compound inhibition rate was determined based on the obtained data. Table 1 Biochemical activity against PARG of the representative compounds of the rresent invention
Background: Time-resolved FRET reads energy transfer from a long-lived donor to a nearby acceptor.

Data set [2] relates to HCC1395. Nature of the data set: Inhibitory effect on cell line proliferation detected by CTG assay. The note with it: Homo sapiens, 168 h; HCC1395 cells, 7 days, CellTiter-Glo. The format is cell-based. On the procedure:
The relevant assays were performed in 3 84-well plates or 96-well plates. The detailed procedure is as follows: The tested cell suspension was added into 384-well or 96-well plates (excluding peripheral wells) (384-well plate: 50 µL; 96-well plate: 100 µL), and the plates were incubated in a carbon dioxide incubator overnight; specifically, HCC1395 and HCC1428 cells were incubated in a 5% carbon dioxide incubator at 37°C overnight. The tested compounds (9-10 compound concentration gradients via 3-fold serial dilution) were added into the corresponding well by a HPD300 micro-dosing instrument. The cell plates were incubated in a carbon dioxide incubator for 7 days; specifically, for HCC1395 and HCC1428 cells, maintaining the incubation condition at 5% carbon dioxide and 37°C throughout this period. On the day of detection, firstly, the 384-well or 96-well plates were equilibrated at room temperature for 10-30 minutes, and then CellTiter-Glo reagent was added into each plate (384-well plate: 25 µL; 96-well plate: 100 µL), the plates were shaked for 10 minutes in the dark place, and incubated for another 10 minutes. The plates were placed into the Victor NIVO microplate reader for measurement. The efficacy inhibition rate curves were ploted using XLFit software and the IC50 values were calculated. Table 2 Anti-proliferative activity assay results of the representative compounds of the present disclosure against cell lines
For orientation: In ATP-based viability assays light output follows the ATP content of the culture.

A short description of data set [3]: Pharmacokinetic study of mice via intravenous injection and oral administration. The format is in vivo. The note with it: mouse, male CD-1 mice, plasma, a: mixed blood samples, b: mean of individual samples. On the procedure:
Plasma samples from male C57BL/6J mice or male CD-1 mice after intravenous injection and oral administration dosing with the tested compound, were collected from the orbital venous plexus at 8-9 time points (e.g., 5 min, 15 min, 30 min, 1 h, 2 h, 4 h, 7 h, 24 h or 5 min, 15 min, 30 min, 1 h, 2 h, 4 h, 6 h, 8 h, 24 h). The collected blood samples were transferred to microcentrifuge tubes containing EDTA-K2 anticoagulant, centrifuged at 4000 g and 4°C for 5 min. The resulting supernatant was pipetted and stored in a -75°C ± 15°C refrigerator . The compound concentrations in plasma samples at different time points were determined via LC-MS/MS, and the relevant pharmacokinetic parameters were calculated using WinNonlin software. Table 3-1 Pharmacokinetic determination results of the representative compounds of the present disclosure

In data set [4] the test system is HCC1428 cell-derived tumors. Nature of the data set: In vivo pharmacodynamic study, subcutaneously implanted HCC1428 tumor model. As to conditions: 30 mg/kg PO, BID*28; BALB/c nude mice with subcutaneous HCC1428 tumors; start at average tumor volume 195 mm^3. On the procedure:
Estrogen was administered to BALB/c nude mice via injection twice weekly until the end of the experiment, subcutaneous inoculation with 1×10^7 HCC1428 cells (suspended in 100 µL of RPMI medium supplemented with Matrigel at a 1:1 volume ratio). Grouping and drug administration were initiated when the average tumor volume reached 150-200 mm^3. During the experiment, the body weight of the mice and tumor size were measured twice weekly, and the clinical symptoms of the animals were observed and recorded daily. The length (a) and width (b) of the tumors were measured using a vernier caliper, and the tumor volume was calculated according to the formula: TV = a×b^2/2. The tumor growth inhibition rate (TGI, %) was calculated based on the tumor volume using the formula: TGI (%) = [1 - (Ti - T0)/ (Vi - V0)] ×100%, wherein Ti represents the mean tumor volume of the treatment group on the i-th day after grouping, T0 represents the mean tumor volume of the treatment group at the time of grouping, Vi represents the mean tumor volume of the vehicle control group on the i-th day after grouping, and V0 represents the mean tumor volume of the vehicle control group at the time of grouping.

Setting [5] is: Intravenous administration (5mg/kg).
Where [6] appears, read: in vivo, Intravenous administration (5mg/kg).
Where [7] appears, read: in vivo, Oral administration (10mg/kg).

T1 sequence (Q86W56 389-976): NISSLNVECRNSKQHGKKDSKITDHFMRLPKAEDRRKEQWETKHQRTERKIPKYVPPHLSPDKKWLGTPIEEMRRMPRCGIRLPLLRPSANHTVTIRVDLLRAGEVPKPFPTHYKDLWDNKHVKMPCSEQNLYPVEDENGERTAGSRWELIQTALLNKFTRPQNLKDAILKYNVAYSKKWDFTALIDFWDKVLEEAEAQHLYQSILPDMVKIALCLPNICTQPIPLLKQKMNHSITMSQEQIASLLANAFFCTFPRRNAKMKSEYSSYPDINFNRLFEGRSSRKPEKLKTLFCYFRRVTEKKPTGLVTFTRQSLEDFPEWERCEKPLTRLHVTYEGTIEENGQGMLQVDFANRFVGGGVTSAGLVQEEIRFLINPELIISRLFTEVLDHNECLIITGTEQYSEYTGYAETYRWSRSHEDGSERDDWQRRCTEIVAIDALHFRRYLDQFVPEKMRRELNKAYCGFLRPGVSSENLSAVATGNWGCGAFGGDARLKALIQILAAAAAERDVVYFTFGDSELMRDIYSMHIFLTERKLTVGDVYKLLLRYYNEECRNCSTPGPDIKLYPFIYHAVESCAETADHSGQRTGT

`CC(C)S(=O)(=O)N1CC=C(c2c(F)c(S(=O)(=O)NC3(C#N)CC3)cc3c(-c4nnc(C(F)(F)F)s4)nn(C)c23)CC1` [Compound 1]: the midpoint of inhibition in data set [1], the IC50, lay at 0.23 nM. This molecule yielded an IC50 in data set [2] of 0.0949 µM. Also, in data set [3] (setting [5]), the AUC(0-inf) turned out to be 44100 ng·h/mL, the AUC(0-t) came out at 44000 ng·h/mL and the clearance was determined as 1.89 mL/min/kg. For the same molecule, in data set [3] (Oral administration (10mg/kg)), the AUC(0-inf) came to 32800 ng·h/mL, the AUC(0-t) amounted to 32800 ng·h/mL and the Cmax was 4320 ng/mL. In addition, in data set [4], the “Tumor Growth Inhibition Rate TGI (%)” value was determined as 106.8%.
On to `CC1=C(c2c(F)c(S(=O)(=O)NC3(C#N)CC3)cc3c(-c4nnc(C(F)(F)F)s4)nn(C)c23)CCN(S(=O)(=O)C(C)C)C1` [Compound 2], for which the IC50 in data set [1] turned out to be 0.3 nM. In addition, the IC50 in data set [2] worked out at 0.0368 µM. Moreover, in data set [3] (setting [5]), the AUC(0-inf) worked out at 50100 ng·h/mL, the AUC(0-t) came out at 49600 ng·h/mL and the clearance came out at 1.68 mL/min/kg. In data set [3] (Oral administration (10mg/kg)), this molecule returned an AUC(0-inf) of 46900 ng·h/mL, an exposure AUC(0-t) of 46700 ng·h/mL and a Cmax of 5370 ng/mL.
Take `CC(C)S(=O)(=O)N1CC=C(c2c(F)c(S(=O)(=O)NC3(C#N)CC3)cc3c(-c4nnc(C(F)F)s4)nn(C)c23)CC1` [Compound 3]: in data set [1], the IC50 came out at 0.19 nM. In data set [2], the IC50 was 0.0992 µM. For the same molecule, in data set [3] (setting [5]), the AUC(0-inf) is 33700 ng·h/mL, the AUC(0-t) is 33700 ng·h/mL and the clearance was determined as 2.47 mL/min/kg. In data set [3] (Oral administration (10mg/kg)), this molecule came in with an AUC(0-inf) of 12000 ng·h/mL, an AUC(0-t) of 12000 ng·h/mL and a Cmax of 3300 ng/mL.
In data set [1], `CC1=C(c2c(F)c(S(=O)(=O)NC3(C#N)CC3)cc3c(-c4nnc(C(F)F)s4)nn(C)c23)CCN(S(=O)(=O)C(C)C)C1` [Compound 4] came in with an IC50 of 0.48 nM. The same molecule showed an IC50 in data set [2] of 0.0445 µM. In data set [3] (setting [5]), this molecule had an AUC(0-inf) of 20300 ng·h/mL, an AUC(0-t) of 18400 ng·h/mL and a clearance of 4.17 mL/min/kg. In addition, in data set [3] (Oral administration (10mg/kg)), the AUC(0-inf) amounted to 11300 ng·h/mL, the AUC(0-t) came out at 11000 ng·h/mL and the peak concentration (Cmax) was 2010 ng/mL.
On to `CC1=C(c2c(F)c(S(=O)(=O)NC3(C)CC3)cc3c(-c4nnc(C(F)(F)F)s4)nn(C)c23)CCN(S(=O)(=O)C(C)C)C1` [Compound 5], for which the IC50 in data set [1] was found to be 0.43 nM; in data set [2] it was 0.043 µM.
For the molecule `CC(C)S(=O)(=O)N1CC=C(c2c(F)c(S(=O)(=O)NC3(C)CC3)cc3c(-c4nnc(C(F)(F)F)s4)nn(C)c23)CC1` [Compound 6], the IC50 came out at 0.35 nM in data set [1] and 0.0913 µM in data set [2].
Take `CC(C)S(=O)(=O)N1CC=C(c2c(F)c(S(=O)(=O)NC3(C)CC3)cc3c(-c4nnc(C(F)F)s4)nn(C)c23)CC1` [Compound 7]: the IC50 in data set [1] turned out to be 0.21 nM; in data set [2] it was 0.074 µM.
For the molecule `CC1=C(c2c(F)c(S(=O)(=O)NC3(C)CC3)cc3c(-c4nnc(C(F)F)s4)nn(C)c23)CCN(S(=O)(=O)C(C)C)C1` [Compound 8], the IC50 stood at 0.17 nM in data set [1] and 0.0322 µM in data set [2].
Regarding `CC(C)C(=O)N1CC=C(c2c(F)c(S(=O)(=O)NC3(C#N)CC3)cc3c(-c4nnc(C(F)F)s4)nn(C)c23)CC1` [Compound 9], in data set [1], the IC50 is 0.56 nM. The same molecule yielded an IC50 in data set [2] of 0.0446 µM. In data set [3] (setting [5]), the AUC(0-inf) was determined as 8560 ng·h/mL, the AUC(0-t) amounted to 8550 ng·h/mL and the clearance turned out to be 9.8 mL/min/kg. In data set [3] (Oral administration (10mg/kg)), this molecule displayed an AUC(0-inf) of 11500 ng·h/mL, an AUC(0-t) of 11500 ng·h/mL and a Cmax of 6160 ng/mL.
In data set [1], `CC(C)C(=O)N1CC=C(c2c(F)c(S(=O)(=O)NC3(C#N)CC3)cc3c(-c4nnc(C(F)(F)F)s4)nn(C)c23)CC1` [Compound 10] had an IC50 of 1.24 nM.
As for `CC(C)C(=O)N1CC=C(c2c(F)c(S(=O)(=O)NC3(C)CC3)cc3c(-c4nnc(C(F)F)s4)nn(C)c23)CC1` [Compound 11], in data set [1], 0.7 nM corresponded to half-maximal inhibition (IC50).
As for `CCC1=C(c2c(F)c(S(=O)(=O)NC3(C#N)CC3)cc3c(-c4nnc(C(F)(F)F)s4)nn(C)c23)CCN(S(=O)(=O)C(C)C)C1` [Compound 13], half-maximal inhibition in data set [2] (IC50) was put at 0.0313 µM. In data set [3] (setting [6]), this molecule returned an AUC(0-inf) of 35900 ng·h/mL, an AUC(0-t) of 35900 ng·h/mL and a clearance of 2.32 mL/min/kg. In data set [3] (setting [7]), the AUC(0-inf) turned out to be 25400 ng·h/mL, the AUC(0-t) is 25400 ng·h/mL and the Cmax is 2500 ng/mL.
